Reference: patent US12251422B2, “Compositions and methods for treating neurological and other disorders” (Rush University Medical Center, priority 2018, dated 2025)

Columns and labels:
[1] = molecular target: T1, interaction between TLR4 and MyD88 (Mus musculus, UniProt Q9QUK6); test: MyD88 immunoprecipitation / TLR4 western blot in BV-2 microglial cells; type: cell-based; details: BV-2 cells, peptide preincubated 1 h, LPS for 1 h, serum-free
T1 construct: endogenous in cells; host or cells: BV-2 microglial cells
T1 sequence (Q9QUK6 26-835): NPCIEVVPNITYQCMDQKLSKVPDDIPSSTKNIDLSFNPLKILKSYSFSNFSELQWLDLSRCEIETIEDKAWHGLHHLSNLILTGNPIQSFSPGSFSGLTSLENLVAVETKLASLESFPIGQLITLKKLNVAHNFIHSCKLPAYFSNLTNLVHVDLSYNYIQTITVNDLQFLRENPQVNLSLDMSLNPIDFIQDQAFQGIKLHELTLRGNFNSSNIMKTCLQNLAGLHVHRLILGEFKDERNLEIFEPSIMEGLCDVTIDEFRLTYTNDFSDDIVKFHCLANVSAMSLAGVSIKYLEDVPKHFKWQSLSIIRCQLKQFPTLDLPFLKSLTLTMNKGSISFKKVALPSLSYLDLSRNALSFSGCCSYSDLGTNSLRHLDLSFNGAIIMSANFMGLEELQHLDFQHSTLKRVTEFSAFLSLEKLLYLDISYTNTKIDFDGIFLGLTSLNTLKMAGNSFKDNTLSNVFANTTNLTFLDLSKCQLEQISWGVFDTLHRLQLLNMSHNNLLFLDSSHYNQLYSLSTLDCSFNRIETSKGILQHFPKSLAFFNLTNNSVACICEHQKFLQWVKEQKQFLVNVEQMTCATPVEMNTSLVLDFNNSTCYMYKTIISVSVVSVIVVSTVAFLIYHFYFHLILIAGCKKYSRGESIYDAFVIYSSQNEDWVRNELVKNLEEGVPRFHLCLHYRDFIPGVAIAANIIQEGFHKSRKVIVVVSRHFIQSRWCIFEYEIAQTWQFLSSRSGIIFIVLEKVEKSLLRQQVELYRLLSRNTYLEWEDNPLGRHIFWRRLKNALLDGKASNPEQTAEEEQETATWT
Protocol: FIG. 3(A-L). Selective disruption of TLR2 and MyD88 interaction by wtTIDM. In silico analyses of interactions of wtTIDM with TLR1, TLR4, TLR5, TLR6, TLR7, and TLR9. A rigid body interaction analyses were performed in pydock in silico analysis tool. […] G) BV-2 microglial cells preincubated with WtTIDM and mTIDM peptides for 1 h were stimulated with 1 μM fibrillar Aβ1-42 under serum-free condition. After 1 h, cellular extracts were immunoprecipitated with anti-MyD88 antibody followed by western blot of immunoprecipitates for TLR2. As control, cellular extracts were immunoprecipitated with normal IgG. Input was also immunoblotted with TLR2 and MyD88. H) Bands were scanned and values (TLR2/Input) presented as relative to control (n=2 replicates/condition in 3 independent experiments). Results were analyzed by two-sample t-tests. I) BV-2 microglial cells preincubated with wtTIDM and mTIDM peptides for 1 h were stimulated with LPS under serum-free condition. After 1 h, cellular extracts were immunoprecipitated with anti-MyD88 antibody followed by western blot of immunoprecipitates for TLR4. As control, cellular extracts were immunoprecipitated with normal IgG. Input was also immunoblotted with TLR4 and My D88. […] Results were analyzed by two-sample t-tests. […] Results were analyzed by two-sample t-tests.

p65 and p50 = test: Nuclear translocation of p65 and p50 in BV-2 microglial cells (Western blot); type: cell-based; details: 10 μM peptide 1 h, 1 μM fibrillar Aβ1-42
Protocol: FIG. 15 (A-F). Effect of wtTIDM peptide on fibrillar Aβ- and LPS-induced nuclear translocation of p65 and p50 in microglial cells. BV-2 microglial cells preincubated with 10 μM wtTIDM peptide for 1 h were stimulated with either 1 μM fibrillar Aβ1-42 (A-C) or 1 μg/ml LPS (D-F) under serum-free condition. At different minute intervals, levels of p65 and p50 (A, fibrillar Aβ; D, LPS) were monitored in nuclear extracts by Western blot. Histone H3 was run as a loading control. Bands were scanned and values of p65/H3 (B & E) and p50/H3 (C & F) are presented as relative to control (n=2 replicates/condition in 3 independent experiments). ap<0.05, bp<0.001 vs control; cp<0.01 vs 30 min stimulation; dp<0.05 vs 15 min stimulation; NS, not significant by two-sample t-tests.

5×FAD Tg mice = test: Amyloid plaque / Aβ load in 5×FAD Tg mice; type: in vivo, mouse; details: 0.1 mg/kg body wt/2 d intranasal, 30 d
Protocol: FIG. 5 (A-Q). […] Actin was run as loading control. […] M) Hippocampal sections were immunolabeled with 82E1 mAb. […] Arrowhead indicates 4 kDa Aβ band.
FIG. 20 (A-B). Intranasal delivery of wtTIDM, but not mTIDM, peptide lowers the burden of amyloid plaques in the hippocampus of Tg mice. […] Actin was run as loading control. […] Results were analyzed by two-sample t-tests.
FIG. 21 (A-F). Intranasal delivery of wtTIDM, but not mTIDM, peptide reduces the levels of Aβ1-40 and Aβ1-42 in serum and hippocampus of Tg mice. […] After 30 d of treatment. ELISA quantification of Aβ1-40 (A, C & E) and Aβ1-42 (B, D & F) was performed in serum (A & B) and TBS (C & D) and (TBS+Triton X-100) (E & F) extracted hippocampal tissues. Six mice (n=6 per group) were used in two independent experiments. ap<0.01 & cp<0.001 versus non-Tg; bp<0.01 & dp<0.001 versus Tg by two-sample t-tests.
B6SJL-Tg (APPSwFlLon,PSEN1*M146L*L286V) 6799Vas/J transgenic (5×FAD or termed here as Tg) mice were purchased from Jackson Laboratories (Bar Harbor, ME). […] Briefly, TIDM peptides were dissolved in 5 μl normal saline, mice were hold in supine position and saline was delivered into one nostril using a pipetman.
Hippocampal tissues were homogenized in TBS, pelleted for 30 min×150,000 g. […]

CC[C@H](C)[C@H](NC(=O)[C@H](CCCCN)NC(=O)[C@@H](NC(=O)[C@H](CCC(N)=O)NC(=O)[C@H](CCCNC(=N)N)NC(=O)[C@@H](N)CC(=O)O)[C@@H](C)CC)C(=O)N[C@@H](Cc1c[nH]c2ccccc12)C(=O)N[C@@H](Cc1ccccc1)C(=O)N[C@@H](CCC(N)=O)C(=O)N[C@@H](CC(N)=O)C(=O)N[C@@H](CCCNC(=N)N)C(=O)N[C@@H](CCCNC(=N)N)C(=O)N[C@@H](CCSC)C(=O)N[C@@H](CCCCN)C(=O)N[C@@H](Cc1c[nH]c2ccccc12)C(=O)N[C@@H](CCCCN)C(=O)N[C@@H](CCCCN)C(=O)N1CCC[C@H]1C(=O)NCC(=O)N[C@@H](C)C(=O)N[C@@H](Cc1c[nH]cn1)C(=O)N[C@@H](CCC(N)=O)C(=O)N[C@@H](CCCCN)C(=O)O [wtTIDM, drqikiwfqnrrmkwkkPGAHQK]
effect on LPS-increased interaction between TLR4 and MyD88 [1]: had no effect | inhibition of nuclear translocation of p65 and p50, fibrillar Aβ1-42 (p65 and p50): inhibited | Aβ (plaques, Western blot, ELISA of Aβ1-40 and Aβ1-42 in serum and hippocampus) (5×FAD Tg mice): significant decrease
